Data published in patent US9868748B2, “Thiazolopyrrolidine inhibitors of ROR- γ” (Vitae Pharmaceuticals, Inc., priority 2013, dated 2018).
Like-named read-outs stand apart in the source and are kept apart here.

Assays:
[1] = biological target: recombinant RORγ Ligand Binding Domain (LBD) protein (Homo sapiens (Human), UniProt P51449); assay: Radio-Ligand RORγ Binding Assay (Assay 1); conditions: competition with 25-hydroxy [26,27-3H]-cholesterol, SPA, read-out: RORγ Binding Ki Range*
Summary of the method: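 Scintillation proximity competition binding of 8.6 nM stock 25-hydroxy[26,27-3H]cholesterol to 24 nM stock 6×His-GST-tagged human RORγ LBD, in 50 mM HEPES pH 7.4 with NaCl, MgCl2, glycerol, CHAPS, β-octylglucopyranoside and DTT, room temperature. Inhibition referenced to DMSO and 10 μM T0901317; IC50 by four-parameter fit, converted to Ki using radioligand concentration and KD.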

[2] = biological target: full-length RORγt in Jurkat cells (Homo sapiens (Human), UniProt P51449); assay: RORγt 5xRORE Assay in Jurkat Cells (Assay 2); type: cell-based; conditions: Nanoluc luciferase reporter, 16-18 hrs
Summary of the method: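 Jurkat cells co-transfected with full-length RORγt expression plasmid and a 5×RORE-driven secreted Nanoluc reporter, then plated at 80,000 cells/well in phenol-red-free RPMI with 10% delipidated FBS. Compounds added at 0.1% DMSO for 16–18 h at 37 °C; supernatant luciferase read for inverse agonism.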

[3] = Table 9, read-out: RORγt5X IC50 Range*
[4] = Table 8, read-out: RORγt5X IC50 Range*

full-length RORγt in Jurkat cells, sequence (P51449 other isoform, or with tags, fused parts or gaps): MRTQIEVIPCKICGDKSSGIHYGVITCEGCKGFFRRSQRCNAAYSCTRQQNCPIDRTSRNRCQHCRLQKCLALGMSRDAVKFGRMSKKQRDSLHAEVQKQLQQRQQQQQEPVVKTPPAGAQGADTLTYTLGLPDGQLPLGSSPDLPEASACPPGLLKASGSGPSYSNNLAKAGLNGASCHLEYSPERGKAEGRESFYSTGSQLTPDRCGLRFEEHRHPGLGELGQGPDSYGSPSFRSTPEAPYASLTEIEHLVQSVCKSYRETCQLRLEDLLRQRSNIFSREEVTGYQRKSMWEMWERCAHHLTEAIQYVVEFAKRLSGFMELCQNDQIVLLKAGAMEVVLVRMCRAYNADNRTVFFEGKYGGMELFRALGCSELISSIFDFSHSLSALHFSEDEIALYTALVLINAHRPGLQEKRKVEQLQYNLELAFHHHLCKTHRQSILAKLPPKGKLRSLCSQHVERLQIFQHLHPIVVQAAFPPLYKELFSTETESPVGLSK
recombinant RORγ Ligand Binding Domain (LBD) protein, sequence (P51449 269-508): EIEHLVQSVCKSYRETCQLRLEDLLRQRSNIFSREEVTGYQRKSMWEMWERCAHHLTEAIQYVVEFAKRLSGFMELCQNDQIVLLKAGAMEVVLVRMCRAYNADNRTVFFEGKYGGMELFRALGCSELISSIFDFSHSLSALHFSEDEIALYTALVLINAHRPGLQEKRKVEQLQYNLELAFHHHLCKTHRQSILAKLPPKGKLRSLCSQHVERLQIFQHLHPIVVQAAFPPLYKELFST

Row | SMILES | Ki ([1]; Table 9) [nM] | IC50 [2, 3] [nM] | Ki ([1]; Table 8) [nM] | IC50 [2, 4] [nM]
1 | CCOC(=O)c1cnc(N2Cc3sc(NC(=O)Cc4ccc(S(=O)(=O)CC)cc4)nc3[C@@H]2C(C)C)nc1C(F)(F)F | < 100 | > 1000 | – | –
2 | Cc1cc(CN2Cc3sc(NC(=O)Cc4ccc(S(C)(=O)=O)cc4)nc3[C@@H]2C(C)C)ccc1C#N [I-B7] | – | – | < 100 | < 100
3 | CCS(=O)(=O)c1ccc(CC(=O)Nc2nc3c(s2)CN(C[C@@H]2CC[C@@H](C(F)(F)F)N(C)C2)[C@H]3C(C)C)cc1 [I-A29] | – | – | < 100 | < 100
4 | CCS(=O)(=O)c1ccc(CC(=O)Nc2nc3c(s2)CN(Cc2ccc(Cl)cc2)[C@H]3C(C)C)c(Cl)c1 | < 100 | < 100 | – | –
5 | CC(C)[C@H]1c2nc(NS(=O)(=O)c3ccc(CC(=O)O)cc3)sc2CN1Cc1ccc(Cl)cc1 [I-D1, (S)-2-(4-(N-(5-(4-chlorobenzyl)-4-isopropyl-5,6-dihydro-4H-pyrrolo[3,4-d]thiazol-2-yl)sulfamoyl)phenyl)acetic acid] | – | – | < 100 | > 1000
6 | CC(C)[C@H]1c2nc(NC(=O)Cc3ccc(S(C)(=O)=O)cc3)sc2CN1Cc1ccc(C(F)(F)F)cn1 [I-B4] | – | – | < 100 | < 100
7 | CCS(=O)(=O)c1ccc(CC(=O)Nc2nc3c(s2)CN(C[C@H]2CC[C@@H](C(F)(F)F)N(C4CC4)C2)[C@H]3C(C)C)cc1 (single isomer, unassigned) | < 100 | > 1000 | – | –
8 | CCS(=O)(=O)c1ccc(CC(=O)Nc2nc3c(s2)CN(Cc2ccc(F)cc2F)[C@H]3C(C)C)cc1 | < 100 | > 1000 | – | –
9 | CCS(=O)(=O)c1ccc(CNC(=O)c2nc3c(s2)CN(Cc2ccc4nonc4c2)[C@H]3C(C)C)nc1 | < 100 | 100 to 1000 | – | –
10 | CCS(=O)(=O)c1ccc(CC(=O)Nc2nc3c(s2)CN(C[C@@H]2CC[C@H](C(F)(F)F)OC2)[C@H]3C(C)C)cc1 (relative stereo) | < 100 | > 1000 | – | –
11 | CC[C@@]1(C)c2nc(NC(=O)Cc3ccc(S(=O)(=O)CC)cc3)sc2CN1Cc1ccc(Cl)cc1 | < 100 | < 100 | – | –
12 | CC[C@H]1c2nc(NC(=O)Cc3ccc(S(=O)(=O)CC)cc3)sc2CN1[C@@H](C)Cc1ccccc1 | < 100 | > 1000 | – | –
13 | CCS(=O)(=O)c1ccc(CC(=O)Nc2nc3c(s2)CN([C@@H](C)c2ccc(Cl)cc2F)[C@H]3C(C)C)cc1 [I-A39] | – | – | < 100 | < 100
14 | CCS(=O)(=O)c1ccc(CC(=O)Nc2nc3c(s2)CN(Cc2ccc(C#N)cc2)[C@H]3C(C)C)nc1 [drawing 230] | < 100 | < 100 | – | –
15 | CCS(=O)(=O)c1ccc(CC(=O)Nc2nc3c(s2)CN([C@H](C)c2c(F)cc(Cl)cc2F)[C@H]3C(C)C)cc1 | < 100 | < 100 | – | –
16 | CCS(=O)(=O)c1ccc(CC(=O)Nc2nc3c(s2)CN(C(C)c2cccc(C(F)(F)F)c2)[C@@H]3C(C)C)cc1 (some centres unmarked) | < 100 | > 1000 | – | –
17 | CC[C@H]1c2nc(NC(=O)Cc3ccc(CO)cc3)sc2CN1Cc1ccc(Cl)cc1 | < 100 | 100 to 1000 | – | –
18 | CCS(=O)(=O)c1ccc(CC(=O)Nc2nc3c(s2)CN([C@H](C)c2ccccc2)[C@@H]3C(C)C)cc1 (single isomer, unassigned) | < 100 | > 1000 | – | –
19 | CCS(=O)(=O)c1ccc(CC(=O)Nc2nc3c(s2)CN(Cc2ccc(OC(F)F)cc2)[C@H]3C(C)C)cc1 [I-A1, (S)—N-(5-(4-(difluoromethoxy)benzyl)-4-isopropyl-5,6-dihydro-4H-pyrrolo[3,4-d]thiazol-2-yl)-2-(4-(ethylsulfonyl)phenyl)acetamide] | – | – | < 100 | < 100
20 | CCS(=O)(=O)c1ccc(CC(=O)Nc2nc3c(s2)CN(Cc2ccc(C(F)(F)F)nc2C)[C@H]3C(C)C)cc1 [I-A21] | – | – | < 100 | < 100
21 | CCS(=O)(=O)c1ccc(CC(=O)Nc2nc3c(s2)CN(Cc2ccc(F)cc2)[C@@H]3C(C)C)cc1 | < 100 | > 1000 | – | –
22 | CC[C@H]1c2nc(NC(=O)Cc3ccc(S(=O)(=O)CC)cc3)sc2CN1Cc1ccc2nc[nH]c2c1 | < 100 | 100 to 1000 | – | –

Row | SMILES | Ki ([1]; Table 9) [nM] | IC50 [2, 3] [nM] | Ki ([1]; Table 8) [nM] | IC50 [2, 4] [nM]
23 | CC(C)[C@H]1c2nc(NC(=O)Cc3ccc(S(C)(=O)=O)cc3)sc2CN1[C@@H](C)c1ccc(C#N)cc1Cl [I-B10] | – | – | < 100 | < 100
24 | CCS(=O)(=O)c1ccc(CC(=O)Nc2nc3c(s2)CN(C[C@@H]2CCCOC2)[C@H]3C(C)C)cc1 (single isomer, unassigned) | < 100 | > 1000 | – | –
25 | CCS(=O)(=O)c1ccc(CC(=O)Nc2nc3c(s2)CN(C[C@H]2CC[C@H](C(F)(F)F)CC2)[C@H]3C(C)C)cc1 [I-A17, 2-(4-(ethylsulfonyl)phenyl)-N—((S)-4-isopropyl-5-((trans-4-(trifluoromethyl)cyclohexyl)methyl)-5,6-dihydro-4H-pyrrolo[3,4-d]thiazol-2-yl)acetamide] | – | – | < 100 | < 100
26 | CC(C)[C@H]1c2nc(NC(=O)Cc3ccc(S(C)(=O)=O)cc3)sc2CN1[C@@H](C)c1ccc(C#N)c(F)c1 [I-B12] | – | – | < 100 | < 100
27 | CC(C)[C@H]1c2nc(NS(=O)(=O)c3ccc(CC(=O)O)cc3)sc2CN1Cc1ccc(C#N)c(F)c1 [drawing 411] | < 100 | > 1000 | – | –
28 | CC(C)[C@H]1c2nc(NC(=O)Cc3ccc(C(=O)O)cc3)sc2CN1Cc1ccc(Cl)cc1 | < 100 | 100 to 1000 | – | –
29 | CCS(=O)(=O)c1ccc(CC(=O)Nc2nc3c(s2)CN(Cc2ccc(-c4nnn(C)n4)cc2)[C@H]3C(C)C)nc1 [I-C9] | – | – | < 100 | < 100
30 | CCS(=O)(=O)c1ccc(CC(=O)Nc2nc3c(s2)CN(C[C@H]2CCCOC2)[C@H]3C(C)C)cc1 (single isomer, unassigned) | < 100 | > 1000 | – | –
31 | COC(=O)c1ccc(CN2Cc3sc(C(=O)NCc4ccc(S(C)(=O)=O)cc4)nc3[C@@H]2C(C)C)cc1 [I-K3] | – | – | < 100 | < 100
32 | CC(C)[C@H]1c2nc(C(=O)NCc3ccc(S(C)(=O)=O)cc3)sc2CN1Cc1ccc(C#N)cc1F | < 100 | 100 to 1000 | – | –
33 | CCS(=O)(=O)c1ccc(CC(=O)Nc2nc3c(s2)CN(Cc2ccc(C(F)(F)F)nn2)[C@H]3C(C)C)cc1 | < 100 | < 100 | – | –
34 | CCOc1ccc(CN2Cc3sc(NC(=O)Cc4ccc(S(=O)(=O)CC)cc4)nc3[C@H]2CC)cc1 | < 100 | 100 to 1000 | – | –
35 | CCS(=O)(=O)c1ccc(CC(=O)Nc2nc3c(s2)CN(c2nc4cccnc4s2)[C@H]3C(C)C)cc1 | < 100 | > 1000 | – | –
36 | CC(C)[C@H]1c2nc(NC(=O)Cc3ccc(S(C)(=O)=O)cc3F)sc2CN1Cc1ccc(C#N)cc1 [I-M1, (S)—N-(5-(4-cyanobenzyl)-4-isopropyl-5,6-dihydro-4H-pyrrolo[3,4-d]thiazol-2-yl)-2-(2-fluoro-4-(methylsulfonyl)phenyl)acetamide] | – | – | < 100 | < 100
37 | CC(C)[C@H]1c2nc(NC(=O)Cc3ccc(-c4nnn[nH]4)cc3)sc2CN1Cc1ccc(Cl)cc1 | 100 to 1000 | > 1000 | – | –
38 | CC[C@@H]1c2nc(NC(=O)Cc3ccc(S(=O)(=O)CC)cc3)sc2CN1Cc1ccc(Cl)cc1 | < 100 | > 1000 | – | –
39 | CC(C)[C@H]1c2nc(NC(=O)Cc3ccc(S(C)(=O)=O)cc3)sc2CN1[C@H](C)c1cnc(Cl)cc1F | < 100 | 100 to 1000 | – | –
40 | CCS(=O)(=O)c1ccc(CC(=O)Nc2nc3c(s2)CN(Cc2ccc(-c4nnnn4C)cc2)[C@H]3C(C)C)cc1 [I-A40] | – | – | < 100 | < 100
41 | CC(C)[C@@H]1c2nc(NC(=O)Cc3ccc(S(C)(=O)=O)cc3)sc2CN1Cc1ccc(OC(F)(F)F)cc1 | 100 to 1000 | > 1000 | – | –
42 | CCS(=O)(=O)c1ccc(CNC(=O)c2nc3c(s2)CN(Cc2ccc(C(F)(F)F)cn2)[C@H]3C(C)C)cc1 [I-J4] | – | – | < 100 | < 100
43 | CC(C)[C@H]1c2nc(NC(=O)Cc3ccc(S(C)(=O)=O)cc3)sc2CN1Cc1ccn(C)c(=O)c1 | 100 to 1000 | > 1000 | – | –
